The text below walks through data of patent EP1568373A2, “Inducing cellular immune responses to HER2/neu using peptide and nucleic acid compositions” (priority 1999, dated 2001).

Where no end group is shown, it is not given here.

Assay [1] addresses DRB1*0101 (DR1) (Homo sapiens, UniProt P01903+P01911, A100R/D57E/F55L/F60I/F76Y/I96L/L162R/M171V/P40L/Q125E/R42F/V115G/Y59C). Nature of the assay: HLA class II binding assay, purified HLA molecules. As to conditions: Her2/neu DR supertype primary binding, Table XXVIII.
For assay [2], the target named is A*2402 (Homo sapiens, UniProt P04439, D101N/D140Y/D185E/E176V/E190D/F33S/G103R/G107R/I119L/I121M/I306V/K335N/L105A/L180Q/L300P/N151K/N90K/Q86E/Q94H/R106L/R138H/R89G/T104I/T345S/V100E/W191G/Y123F). Nature of the assay: HLA class I binding assay, purified HLA molecules. The following applies: HLA-A24 Motif-Bearing Peptides, Table XXVI.
Assay [3] concerns the target A*0101 (Homo sapiens, UniProt P04439, A114D/A174V/A182V/D101N/D185E/E176A/E190D/L180R/Q94H/R68K/S129P/T187R/V100A/V91M/W191G). Nature of the assay: HLA class I binding assay, purified HLA molecules, inhibition of 125I-radiolabeled probe peptide. The following applies: HLA-A1 Motif-Bearing Peptides, Table XXV.
Assay [4] concerns the target DRB1*0401 (DR4w4) (Homo sapiens, UniProt P01903+P01911, A100K/A169T/F76Y/I96L/K127E/L162R/M171V/N62H/P40V/Q125Y/R42H/S133A/S149N/S66Y/V115G/V209L/W38E). Nature of the assay: HLA class II binding assay, purified HLA molecules. The following applies: Her2/neu DR supertype primary binding, Table XXVIII.
The target of assay [5] is DRB1*0701 (DR7) (Homo sapiens, UniProt P01903+P01911, A100R/A102G/A103Q/D57E/D86V/E43K/F76Y/K127E/L162R/M171V/P40G/Q125H/Q99D/R33Q/R42Y/R54Q/S133A/S66F/T210M/V115G/Y107V/Y59L/Y89S). Nature of the assay: HLA class II binding assay, purified HLA molecules. The following applies: Her2/neu DR supertype primary binding, Table XXVIII.

For the molecule `CC[C@H](C)[C@H](NC(=O)CNC(=O)[C@@H](NC(=O)[C@@H](NC(=O)[C@H](C)NC(=O)[C@H](CO)NC(=O)[C@@H](NC(=O)[C@@H](NC(=O)[C@H](CO)NC(=O)[C@@H](NC(=O)[C@H](CC(C)C)NC(=O)[C@@H]1CCCN1C(=O)[C@H](CO)NC(=O)[C@H](C)N)[C@@H](C)O)[C@@H](C)CC)[C@@H](C)CC)C(C)C)C(C)C)C(=O)N[C@@H](CC(C)C)C(=O)O` [Her2/neu.648], the IC50 in assay [1] came out at 56 nM.

In turn, TYLPTNASF [Her2/neu.63.F9] registered an IC50 in assay [2] of 44 nM.

In turn, `CC[C@H](C)[C@H](NC(=O)CNC(=O)[C@H](CC(=O)O)NC(=O)[C@H](Cc1ccc(O)cc1)NC(=O)[C@@H]1CCCN1C(=O)[C@H](CCCCN)NC(=O)[C@H](C)NC(=O)CNC(=O)[C@H](Cc1ccccc1)NC(=O)[C@@H](NC(=O)[C@H](CCSC)NC(=O)[C@H](CC(C)C)NC(=O)[C@H](CCC(=O)O)NC(=O)[C@H](Cc1c[nH]c2ccccc12)NC(=O)[C@@H](N)C(C)C)[C@@H](C)O)C(=O)O` [Her2/neu.912] had an IC50 in assay [1] of 58 nM.

For the molecule `CC[C@H](C)[C@H](NC(=O)[C@@H]1CCCN1C(=O)[C@H](CCSC)NC(=O)[C@H](Cc1ccc(O)cc1)NC(=O)[C@@H](N)CO)C(=O)N[C@@H](Cc1c[nH]c2ccccc12)C(=O)N[C@@H](CCCCN)C(=O)N[C@@H](Cc1ccccc1)C(=O)O` [Her2/neu.609], the IC50 in assay [2] was 38 nM.

In the case of `CC[C@H](C)[C@H](NC(=O)CNC(=O)[C@@H](NC(=O)[C@@H](NC(=O)[C@H](C)NC(=O)[C@H](CO)NC(=O)[C@@H](NC(=O)[C@@H](NC(=O)[C@H](CO)NC(=O)[C@@H](NC(=O)[C@@H](N)CC(C)C)[C@@H](C)O)[C@@H](C)CC)[C@@H](C)CC)C(C)C)C(C)C)C(=O)N[C@@H](CC(C)C)C(=O)N[C@@H](CC(C)C)C(=O)N[C@H](C(=O)N[C@H](C(=O)O)C(C)C)C(C)C` [Her2/neu.651], in assay [1], the IC50 was determined as 26 nM.

In turn, AYSLTLQGF [Her2/neu.440.F9] showed an IC50 in assay [2] of 52 nM.

In assay [2], AYSLTLQGL [Her2/neu.440] registered a concentration for half-maximal inhibition (IC50) of 92 nM.

In the case of `CC[C@H](C)[C@H](NC(=O)[C@H](C)NC(=O)[C@@H](NC(=O)[C@@H]1CCCN1C(=O)[C@@H](NC(=O)[C@H](CCCCN)NC(=O)[C@@H](NC(=O)[C@H](CC(N)=O)NC(=O)[C@H](CCC(=O)O)NC(=O)CN)C(C)C)[C@@H](C)CC)C(C)C)C(=O)N[C@@H](CCCCN)C(=O)N[C@H](C(=O)N[C@@H](CC(C)C)C(=O)N[C@@H](CCCNC(=N)N)C(=O)N[C@@H](CCC(=O)O)C(=O)O)C(C)C` [Her2/neu.743], the IC50 in assay [1] was 79 nM.

Regarding LYISAWPDSF [Her2/neu,410.F10], in assay [2], the half-inhibitory concentration (IC50) was determined as 10 nM.

`CC[C@H](C)[C@H](NC(=O)[C@H](CCCCN)NC(=O)[C@H](CCCCN)NC(=O)[C@@H](N)CS)C(=O)N[C@@H](Cc1ccccc1)C(=O)NCC(=O)N[C@@H](CO)C(=O)N[C@@H](CC(C)C)C(=O)N[C@@H](C)C(=O)N[C@@H](Cc1ccccc1)C(=O)N[C@@H](CC(C)C)C(=O)N1CCC[C@H]1C(=O)N[C@@H](CCC(=O)O)C(=O)N[C@@H](CO)C(=O)N[C@@H](Cc1ccccc1)C(=O)O` [Her2/neu.367] had an IC50 in assay [1] of 21 nM.

The molecule ETHLDMLRHLY [Her2/neu.40] returned an IC50 in assay [3] of 89 nM.

Take `CC[C@H](C)[C@H](NC(=O)[C@H](CCSC)NC(=O)[C@H](Cc1c[nH]c2ccccc12)NC(=O)[C@H](CS)NC(=O)[C@H](CCCCN)NC(=O)[C@@H](NC(=O)[C@H](CCSC)NC(=O)[C@@H](NC(=O)[C@H](CCSC)NC(=O)[C@H](Cc1ccc(O)cc1)NC(=O)[C@@H](NC(=O)[C@@H](N)CC(=O)O)C(C)C)[C@@H](C)CC)C(C)C)C(=O)N[C@@H](CC(=O)O)C(=O)N[C@@H](CO)C(=O)N[C@@H](CCC(=O)O)C(=O)O` [Her2/neu.950]: the IC50 in assay [4] was found to be 790 nM.

On to VEPLTPSGAMPNQAQ [Her2/neu.697], for which the IC50 in assay [1] is greater than 6250 nM.

GTDLFEDNY [Her2/neu.104.D3]: in assay [3], the IC50 was found to be 0.9 nM.

In assay [1], DMKLRLPASPETHLD [Her2/neu.30] gave an IC50 of 5000 nM.

In assay [1], ETELVEPLTPSGAMP [Her2/neu.693] yielded an IC50 of 833 nM.

In the case of VFETLEEITGY [Her2/neu.399], in assay [3], the IC50 worked out at 5560 nM.

Regarding LYISAWPDSL [Her2/neu.410], the IC50 in assay [2] was 143 nM.

In assay [2], AYPDSLPDF [Herw/neu414.Y2F9] returned an IC50 of 24 nM.

Take `CSCC[C@H](NC(=O)[C@@H](NC(=O)[C@H](Cc1ccc(O)cc1)NC(=O)[C@H](C)NC(=O)[C@H](CCC(=O)O)NC(=O)[C@@H](N)CC(=O)O)C(C)C)C(=O)N[C@@H](C)C(=O)NCC(=O)N[C@H](C(=O)NCC(=O)N[C@@H](CO)C(=O)N1CCC[C@H]1C(=O)N[C@@H](Cc1ccc(O)cc1)C(=O)N[C@H](C(=O)N[C@@H](CO)C(=O)O)C(C)C)C(C)C` [Her2/neu.769]: the IC50 in assay [1] was 100 nM; in assay [4], 196 nM.

As to ITDFGLARLLDIDET [Her2/neu.861], the IC50 in assay [1] was 1040 nM.

In assay [2], CYGLGMEHF [Her2/neu.342.F9] had an IC50 of 164 nM.

On to `CSCC[C@H](NC(=O)[C@H](CC(C)C)NC(=O)[C@H](CCC(N)=O)NC(=O)[C@@H](NC(=O)[C@@H](NC(=O)[C@H](CC(C)C)NC(=O)[C@H](CCC(N)=O)NC(=O)[C@@H](NC(=O)[C@@H](N)[C@@H](C)O)C(C)C)C(C)C)[C@@H](C)O)C(=O)N1CCC[C@H]1C(=O)N[C@@H](Cc1ccc(O)cc1)C(=O)NCC(=O)N[C@@H](CS)C(=O)N[C@@H](CC(C)C)C(=O)N[C@@H](CC(C)C)C(=O)O` [Her2/neu.793], for which the IC50 in assay [1] was found to be 22 nM; in assay [5] it was 2500 nM.

In turn, `CC[C@H](C)[C@H](NC(=O)[C@H](CCC(=O)O)NC(=O)[C@@H](N)CCCCN)C(=O)N[C@@H](CC(C)C)C(=O)N[C@@H](CC(=O)O)C(=O)N[C@@H](CCC(=O)O)C(=O)N[C@@H](C)C(=O)N[C@@H](Cc1ccc(O)cc1)C(=O)N[C@H](C(=O)N[C@@H](CCSC)C(=O)N[C@@H](C)C(=O)NCC(=O)N[C@H](C(=O)NCC(=O)N[C@@H](CO)C(=O)O)C(C)C)C(C)C` [Her2/neu.765] came in with an IC50 in assay [4] of 6160 nM.

Turning to GTDMKLRLPY [Her2/neu.28.Y10], in assay [3], the IC50 came to 50 nM.

ETMPNPEGRY [Her2/neu.280.T2] displayed an IC50 in assay [3] of 3.9 nM.

`CC(C)[C@H](N)C(=O)N[C@H](C(=O)N[C@@H](C)C(=O)N[C@@H](CS)C(=O)N1CCC[C@H]1C(=O)N[C@@H](Cc1ccc(O)cc1)C(=O)N[C@@H](CC(N)=O)C(=O)N[C@@H](Cc1ccc(O)cc1)C(=O)O)[C@@H](C)O` [Her2/neu.296] gave a 50% inhibitory concentration (IC50) in assay [3] of 250 nM.

Regarding `CSCC[C@H](NC(=O)[C@H](CC(C)C)NC(=O)[C@H](CCC(=O)O)NC(=O)[C@H](Cc1c[nH]c2ccccc12)NC(=O)[C@@H](NC(=O)[C@@H](NC(=O)[C@@H](NC(=O)CN)C(C)C)[C@@H](C)O)C(C)C)C(=O)N[C@H](C(=O)N[C@@H](Cc1ccccc1)C(=O)NCC(=O)N[C@@H](C)C(=O)N[C@@H](CCCCN)C(=O)N1CCC[C@H]1C(=O)N[C@@H](Cc1ccc(O)cc1)C(=O)O)[C@@H](C)O` [Her2/neu.909], the concentration for half-maximal inhibition (IC50) in assay [5] came out at 1470 nM.

For the molecule QPDVRPQPPSPREGP [Her2/neu.1142], the IC50 in assay [1] is 7140 nM.

The molecule HTDMLRHLY [Her2/neu.42.T2] registered an IC50 in assay [3] of 1.9 nM.

In turn, LLVVVLGVVFGILIK [Her2/neu.662] yielded an IC50 in assay [1] greater than 6250 nM.

On to `CC[C@H](C)[C@H](NC(=O)[C@H](CCC(N)=O)NC(=O)[C@H](CCSC)NC(=O)[C@H](CS)NC(=O)[C@H](Cc1c[nH]c2ccccc12)NC(=O)[C@H](CC(N)=O)NC(=O)[C@H](CC(C)C)NC(=O)[C@@H](N)CC(C)C)C(=O)N[C@@H](C)C(=O)N[C@@H](CCCCN)C(=O)NCC(=O)N[C@@H](CCSC)C(=O)N[C@@H](CO)C(=O)N[C@@H](Cc1ccc(O)cc1)C(=O)N[C@@H](CC(C)C)C(=O)O` [Her2/neu.822], for which the IC50 in assay [1] was found to be 6 nM; in assay [5], 208 nM.

Take `CC(C)C[C@H](NC(=O)[C@H](C)NC(=O)[C@H](Cc1ccc(O)cc1)NC(=O)[C@H](CC(N)=O)NC(=O)[C@H](CC(=O)O)NC(=O)[C@H](CCC(=O)O)NC(=O)[C@H](Cc1ccccc1)NC(=O)[C@H](CC(C)C)NC(=O)[C@H](CCC(N)=O)NC(=O)[C@@H](N)[C@@H](C)O)C(=O)N[C@@H](C)C(=O)N[C@H](C(=O)N[C@@H](CC(C)C)C(=O)N[C@@H](CC(=O)O)C(=O)N[C@@H](CC(N)=O)C(=O)O)C(C)C` [Her2/neu.105]: the IC50 was 94 nM in assay [1] and 1560 nM in assay [5].

One may read the IC50 as the concentration needed to halve the response being measured.
